This is an account of results in patent US20240335462A1, “SULFUR/PHOSPHORUS-CONTAINING ARYL COMPOUND AND APPLICATION THEREOF” (MEDSHINE DISCOVERY INC., priority 2021, published 2024).

The structures appear in SMILES notation. Structures can show the parent of a compound that is named as a salt.

Sequence of Ba/F3-FL-TYK2-E957D cells (P29597 whole entry E957D): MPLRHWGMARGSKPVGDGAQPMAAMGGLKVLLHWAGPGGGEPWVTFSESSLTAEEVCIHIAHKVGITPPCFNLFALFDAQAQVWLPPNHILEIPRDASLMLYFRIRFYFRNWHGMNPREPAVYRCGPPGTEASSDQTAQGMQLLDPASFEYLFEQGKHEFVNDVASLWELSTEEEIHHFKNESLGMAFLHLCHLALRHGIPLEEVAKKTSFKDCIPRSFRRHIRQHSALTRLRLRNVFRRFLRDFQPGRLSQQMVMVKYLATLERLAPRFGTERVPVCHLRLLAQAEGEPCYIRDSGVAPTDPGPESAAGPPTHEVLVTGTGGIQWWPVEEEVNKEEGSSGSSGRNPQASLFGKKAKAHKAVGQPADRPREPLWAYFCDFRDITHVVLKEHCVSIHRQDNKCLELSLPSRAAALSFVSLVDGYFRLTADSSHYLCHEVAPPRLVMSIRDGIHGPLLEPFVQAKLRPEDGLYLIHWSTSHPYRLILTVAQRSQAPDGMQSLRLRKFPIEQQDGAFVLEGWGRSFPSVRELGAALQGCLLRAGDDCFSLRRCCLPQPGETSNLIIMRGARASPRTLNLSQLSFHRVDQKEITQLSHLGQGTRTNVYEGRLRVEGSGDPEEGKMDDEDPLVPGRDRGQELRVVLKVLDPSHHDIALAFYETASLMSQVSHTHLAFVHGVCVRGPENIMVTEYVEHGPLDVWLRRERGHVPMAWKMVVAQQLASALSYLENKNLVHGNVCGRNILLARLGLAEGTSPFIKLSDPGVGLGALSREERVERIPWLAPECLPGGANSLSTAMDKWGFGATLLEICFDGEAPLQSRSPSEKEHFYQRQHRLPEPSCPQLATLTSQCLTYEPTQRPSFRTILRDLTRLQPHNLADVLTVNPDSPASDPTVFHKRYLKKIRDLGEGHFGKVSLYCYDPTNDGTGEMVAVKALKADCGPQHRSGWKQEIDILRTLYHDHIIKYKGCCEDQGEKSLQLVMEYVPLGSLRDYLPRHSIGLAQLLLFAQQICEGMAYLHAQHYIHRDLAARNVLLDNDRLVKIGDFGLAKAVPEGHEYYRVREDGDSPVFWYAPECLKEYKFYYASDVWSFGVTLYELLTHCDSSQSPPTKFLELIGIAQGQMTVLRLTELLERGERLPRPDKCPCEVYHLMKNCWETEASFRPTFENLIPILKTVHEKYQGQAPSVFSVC

For one test, the target named is TYK2 JH2 pseudokinase (Homo sapiens, UniProt P29597). Nature of the test: Inhibitory activity on TYK2 JH2 pseudokinase (TR-FRET). Type of test: binding. As to conditions: 60 min room temperature, read-out: Kinase half maximal inhibitory concentration IC50 TYK2 JH2. How it is done: In this experiment, the inhibitory effect of compounds on TYK2 JH2 pseudokinase was tested using the method of time-resolved fluorescence resonance energy transfer (TR-FRET). In the experiment, TYK2 JH2 or JAK1 JH2 pseudokinase can simultaneously bind to fluorescently labeled Tracer and Tb antibody to form a “sandwich structure”. Tb antibody, functioning as a fluorescent donor, produces fluorescence at a wavelength of 495 nm under the excitation of light at a specific wavelength. Tracer, functioning as a fluorescent acceptor, can receive fluorescence at a wavelength of 495 nm and thus produce fluorescence at a wavelength of 520 nm, i.e., a time-resolved fluorescence resonance energy transfer (TR-FRET) signal, only when it is within the “sandwich structure”, i.e., when it is sufficiently close to Tb antibody. When the compound is added to compete with Tracer for binding to the pseudokinase, the binding of Tracer decreases, leading to a weakened TR-FRET signal. The inhibitory activity of the compound binding to the pseudokinase can be reflected by the ratio of signal values at 520 nm/495 nm.
Sequence of TYK2 JH2 pseudokinase (P29597 589-875 limits assumed): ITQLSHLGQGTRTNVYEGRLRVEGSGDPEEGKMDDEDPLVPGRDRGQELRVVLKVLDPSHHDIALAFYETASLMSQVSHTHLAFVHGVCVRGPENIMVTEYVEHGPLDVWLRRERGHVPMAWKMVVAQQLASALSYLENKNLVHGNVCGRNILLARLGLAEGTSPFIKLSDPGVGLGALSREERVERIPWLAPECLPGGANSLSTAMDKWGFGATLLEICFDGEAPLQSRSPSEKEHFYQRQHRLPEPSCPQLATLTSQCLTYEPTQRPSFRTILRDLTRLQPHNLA
The working solution consists of the following components: HEPES (pH 7.5) at a final concentration of 20 mM; MgCl2 at a final concentration of 10 mM; Brij-35 at a final concentration of 0.015%; DTT at a final concentration of 2 mM; and BSA at a final concentration of 50 μg/mL.
• a) The compound was dissolved in DMSO to achieve a storage concentration of 10 mM. • b) Various concentrations of the compound, 200 times the final concentration, were prepared in a compound dilution plate and transferred to an Echo plate. • c) The Echo instrument was used to transfer 150 nL of the compound from the Echo plate to a 384-well experimental plate. • d) 5 μL of TYK2 JH2 kinase, at three times the final concentration, was added to the 384-well experimental plate. • e) 5 μL of Tb, at three times the final concentration, was added to the 384-well experimental plate. • f) 5 μL of Tracer, at three times the final concentration, was added to the 384-well experimental plate. • g) The plate was centrifuged for 30 seconds and then incubated at room temperature for 60 minutes. • h) The fluorescence signal values at 520 nm/495 nm were measured using an Envision plate reader (PerkinElmer).
Data analysis was performed using the XL-Fit software to determine the IC50 of the compounds.
(In TR-FRET formats the signal depends on donor and acceptor labels being close together.)
With `[2H]C([2H])([2H])NC(=O)c1cnc(NC(=O)C2CC2)cc1Nc1cccc(-c2ncc([S+](C)[O-])cn2)c1OC` (stereo not drawn) [Hydrochloride of WX-002], the IC50 was 0.19 nM.
`CNC(=O)c1cnc(NC(=O)C2CC2)cc1Nc1cccc(-c2ncc(S(=O)(=O)N3CCC3)cn2)c1OC` [Hydrochloride of WX-018]: the IC50 is 0.13 nM.
For the molecule `[2H]C([2H])([2H])NC(=O)c1cnc(NC(=O)C2CC2)cc1Nc1cccc(-c2ccc(S(C)(=O)=O)cn2)c1OC` [WX-004], the IC50 turned out to be 0.2 nM.
Consider `[2H]C([2H])([2H])NC(=O)c1cnc(NC(=O)C2CC2)cc1Nc1cccc(-c2ncc(S(C)(=N)=O)cn2)c1OC` (stereo not drawn) [WX-003], for which the IC50 amounted to 0.34 nM.

Another test addresses Ba/F3-FL-TYK2-E957D cells (Homo sapiens, UniProt P29597, E957D, cells depend on it). Nature of the test: Proliferation of Ba/F3-FL-TYK2-E957D cells (CellTiter-Glo). Type of test: cell-based, mouse. The settings on record: 72 hours, read-out: Half maximal inhibitory concentration IC50 for cells Ba/F3-FL-TYK2-E957D. From the text:
Adenosine triphosphate (ATP) serves as a universal energy carrier in various life processes, representing the smallest unit of energy storage and transfer. The CellTiter-Glo™ Luminescent Cell Viability Assay Kit utilizes luciferase as a detection agent. During the luminescent process, luciferase requires the participation of ATP. By adding CellTiter-Glo™ reagent to the cell culture medium and measuring the luminescence, the light signal was directly proportional to the amount of ATP in the system, and ATP was positively correlated with the number of viable cells. Therefore, cell proliferation can be detected by measuring ATP content using the CellTiter-Glo kit. In this test, the cell lines used were Ba/F3-FL-TYK2-E957D and Ba/F3-TEL-TYK2. Ba/F3-FL-TYK2-E957D cells can stably express the exogenously introduced human TYK2-E957D gene, and the TYK2-E957D gene sequence contains both JH1 and JH2 domains. On the other hand, Ba/F3-TEL-TYK2 cells can stably express the exogenously introduced human TEL-TYK2 gene, and the TEL-TYK2 gene sequence contains only the JH1 domain of TYK2.
The cell lines were cultured in an incubator at 37° C. with 5% CO2. Regular passaging was performed, and cells in the logarithmic growth phase were selected for plating.
• a) The test compounds were prepared into a 10 mM solution with DMSO, and then diluted to 0.3 or 1 mM with DMSO. • b) Preparation of 1000× compound storage plate (tube): The compounds were 3-fold serially diluted from the highest concentration to the lowest concentration, creating 9 different concentrations. • c) Preparation of 20× compound working solution: 49 μL of cell culture medium was added to a flat-bottomed 96-well transparent drug plate. From the 1000× compound storage plate, 1 μL of the compound was pipetted into the cell culture medium in the 96-well transparent drug plate. In the solvent control, 1 μL of DMSO was added. After the compound or DMSO was added, the mixture was homogenized using a multi-channel pipette.
• a) Cells were stained with trypan blue and viable cells were counted to ensure a cell viability of 90% or more. • b) 95 μL of cell suspension (2000 cells/well) was added to each well of the compound assay cell plate, and cell-free culture medium containing 0.1% DMSO was added to the Min control wells. • c) Administration in the compound assay cell plate: 5 μL of 20× compound working solution was added to the cell culture plate. 5 μL of DMSO-cell culture medium mixture was added to the Max control wells. The final concentration of DMSO was 0.1%. • d) The culture plate was then incubated in an incubator at 37° C. with 5% CO2 for 72 hours.
The following steps were conducted in accordance with the instructions of the Promega CellTiter-Glo Luminescent Cell Viability Assay Kit (Promega-G7573). • a) CellTiter-Glo buffer was thawed and brought to room temperature. • b) CellTiter-Glo substrate was also brought to room temperature. • c) CellTiter-Glo buffer was added to a bottle of CellTiter-Glo substrate to dissolve the substrate, thereby preparing CellTiter-Glo working solution. • d) The mixture was slowly vortexed and shaken to be fully dissolved. • e) The cell culture plate was removed and allowed to equilibrate to room temperature for 10 minutes. • f) 50 μL (equal to half the volume of cell culture medium in each well) of CellTiter-Glo working solution was added to each well. • g) The culture plate was shaken on an orbital shaker for 2 minutes to induce cell lysis. • h) The plate was then left at room temperature for 10 minutes to stabilize the luminescent signal. • i) The luminescent signal was detected using a SpectraMax Paradigm plate reader.
Data analysis was conducted using GraphPad Prism 5.0 software. Nonlinear S-curve regression was employed to fit the data and generate dose-response curves. From these curves, the IC50 values were calculated.
(In ATP-based viability assays light output follows the ATP content of the culture.)
Turning to `CN=S(=O)(c1ccc(-c2cccc(Nc3cc(NC(=O)C4CC4)nnc3C(=O)NC)c2OC)nc1)C(C)C` (stereo not drawn) [Trifluoroacetate of WX-014], the GI50 is 10.9 nM.
Consider `CNC(=O)c1nnc(NC(=O)C2CC2)cc1Nc1cccc(-c2ccc(P(=O)(C3CC3)C3CC3)cc2)c1OC` [WX-024], for which the GI50 turned out to be 10 nM.
As for `[2H]C([2H])([2H])NC(=O)c1cnc(NC(=O)C2CC2)cc1Nc1cccc(-c2ncc(S(=O)(=O)N(C)C)cn2)c1OC` [WX-005], the GI50 was found to be 2.2 nM.
As for `[2H]C([2H])([2H])NC(=O)c1cnc(NC(=O)C2CC2)cc1Nc1cccc(-c2ncc(S(=O)(=O)N3CCCC3)cn2)c1OC` [Hydrochloride of WX-006], the GI50 was found to be 10.6 nM.
As for `CCN=S(=O)(c1ccc(-c2cccc(Nc3cc(NC(=O)C4CC4)nnc3C(=O)NC)c2OC)nc1)C(C)C` (stereo not drawn) [Hydrochloride of WX-016], the GI50 turned out to be 11.7 nM.
For `CNC(=O)c1nnc(NC(=O)C2CC2)cc1Nc1cccc(-c2ccc(S(=N)(=O)C(C)C)nc2)c1OC` (single isomer, unassigned) [WX-037A], the GI50 came to 15 nM.
Regarding `[2H]C([2H])([2H])NC(=O)c1cnc(NC(=O)C2CC2)cc1Nc1cccc(-c2ccc(S(C)(=O)=O)cc2)c1OC` [Hydrochloride of WX-007], the GI50 was 9.5 nM.
The same measure, in the same setting: to `CNC(=O)c1nnc(NC(=O)C2CC2)cc1Nc1cccc(-c2ncc(S3(=O)=NCCCC3)cn2)c1OC` (stereo not drawn) [Hydrochloride of WX-029] belongs 3.8 nM; to `CCP(=O)(CC)c1ccc(-c2cccc(Nc3cc(NC(=O)C4CC4)ncc3C(=O)NC)c2OC)cc1` [WX-025], 12.7 nM; to `CNC(=O)c1nnc(NC(=O)C2CC2)cc1Nc1cccc(-c2ccc(S(=N)(=O)C(C)C)nc2)c1OC` (single isomer, unassigned) [WX-037B], 17 nM.
Take `CNC(=O)c1nnc(NC(=O)C2CC2)cc1Nc1cccc(-c2ccc(S(=N)(=O)C(C)C)nn2)c1OC` (single isomer, unassigned) [WX-036B]: the GI50 came to 17.3 nM.
Consider `[2H]C([2H])([2H])NC(=O)c1cnc(NC(=O)C2CC2)cc1Nc1cccc(-c2ncc([S+](C)[O-])cn2)c1OC` (stereo not drawn) [Hydrochloride of WX-002], for which the GI50 worked out at 19.2 nM.
`COc1c(Nc2cc(NC(=O)C3CC3)nnc2C(N)=O)cccc1-c1ncc(S(=N)(=O)C(C)C)cn1` (stereo not drawn) [Hydrochloride of WX-031]: the GI50 was determined as 2.6 nM.
With `CNC(=O)c1cnc(NC(=O)C2CC2)cc1Nc1cccc(-c2ncc(S(=O)(=O)N3CCC3)cn2)c1OC` [Hydrochloride of WX-018], the GI50 worked out at 4.2 nM.
On to `CN=S(=O)(c1cnc(-c2cccc(Nc3cc(NC(=O)C4CC4)nnc3C(=O)NC)c2OC)nc1)C(C)C` (stereo not drawn) [WX-013], for which the GI50 turned out to be 12.1 nM.
Same read-out and setting: to `CNC(=O)c1nnc(NC(=O)C2CC2)cc1Nc1cccc(-c2ccc(S(=N)(=O)C(C)C)nn2)c1OC` (single isomer, unassigned) [WX-036A] belongs 8.3 nM; to `[2H]C([2H])([2H])NC(=O)c1cnc(NC(=O)C2CC2)cc1Nc1cccc(-c2ncc(S(=N)(=O)C(C)C)cn2)c1OC` (stereo not drawn) [Trifluoroacetate of WX-009], 12.1 nM; to `[2H]C([2H])([2H])NC(=O)c1cnc(NC(=O)C2CC2)cc1Nc1cccc(-c2ccc(S(C)(=O)=NC)cc2)c1OC` (stereo not drawn) [Hydrochloride of WX-010], 12.6 nM.
Still for that read-out and setting: to `CCN=S(=O)(c1cnc(-c2cccc(Nc3cc(NC(=O)C4CC4)nnc3C(=O)NC)c2OC)nc1)C(C)C` (stereo not drawn) [Hydrochloride of WX-015] belongs 13 nM; to `COc1c(Nc2cc(NC(=O)C3CC3)nnc2C(N)=O)cccc1-c1ccc(S(=N)(=O)C(C)C)cn1` (stereo not drawn) [Hydrochloride of WX-032], 2.9 nM.
For the molecule `CNC(=O)c1cnc(NC(=O)C2CC2)cc1Nc1cccc(-c2ccc(S(=O)(=O)C(C)C)nc2)c1OC` [WX-039], the GI50 was 4.7 nM.
For the molecule `CNC(=O)c1nnc(NC(=O)C2CC2)cc1Nc1cccc(-c2ccc(P(=O)(C(C)C)C(C)C)cc2)c1OC` [WX-023], the GI50 came to 13.8 nM.
In the case of `[2H]C([2H])([2H])NC(=O)c1cnc(NC(=O)C2CC2)cc1Nc1cccc(-c2ccc(S(C)(=O)=O)cn2)c1OC` [WX-004], the GI50 turned out to be 5.5 nM.
On the same count and under the same terms, to `CNC(=O)c1cnc(NC(=O)C2CC2)cc1Nc1cc(F)cc(-c2ncc(S(=O)(=O)C(C)C)cn2)c1OC` [WX-030] belongs 2 nM.
The same measure, in the same setting: to `CNC(=O)c1cnc(NC(=O)C2CC2)cc1Nc1cccc(-c2ncc(S(=O)(=O)N(C)C)cn2)c1OC` [Hydrochloride of WX-017] belongs 4 nM.
For the molecule `CCP(=O)(CC)c1ccc(-c2cccc(Nc3cc(NC(=O)C4CC4)nnc3C(=O)NC)c2OC)nc1` [WX-022], the GI50 was 13.7 nM.
As for `CNC(=O)c1cnc(NC(=O)C2CC2)cc1Nc1cccc(-c2ccc(S(=O)(=O)C(C)C)nn2)c1OC` [WX-038], the GI50 amounted to 3 nM.
As for `CNC(=O)c1cnc(NC(=O)C2CC2)cc1Nc1cc(F)cc(-c2ccc(S(C)(=O)=O)cc2)c1OC` [Trifluoroacetate of WX-026], the GI50 was determined as 18.8 nM.
As to `[2H]C([2H])([2H])NC(=O)c1nnc(NC(=O)C2CC2)cc1Nc1cc(F)cc(-c2ccc(P(C)(C)=O)cc2)c1OC` [Hydrochloride of WX-027], the GI50 was found to be 18.3 nM.
Same read-out and setting: to `[2H]C([2H])([2H])NC(=O)c1nnc(NC(=O)C2CC2)cc1Nc1cccc(-c2ccc(P(C)(C)=O)cc2)c1OC` [Hydrochloride of WX-008] belongs 16 nM; to `COc1c(Nc2cc(NC(=O)C3CC3)nnc2C(N)=O)cccc1-c1ccc(P(=O)(C2CC2)C2CC2)cn1` [Trifluoroacetate of WX-035], 6.7 nM.
`CNC(=O)c1nnc(NC(=O)C2CC2)cc1Nc1cccc(-c2ncc(S(=N)(=O)C3CC3)cn2)c1OC` (stereo not drawn) [WX-028]: the GI50 is 4 nM.
